Test results published in US20230107642A1 (Erasca, Inc., priority 2020, published 2023).

Molecular target: T1, Cys12 of the KRAS 4B G12C protein (Homo sapiens, UniProt P01116, G12C)
T1 construct: This protein contained 188 amino acids in total, including an N-terminal 6-Histidine tag; made in house; host or cells: E. coli BL21
Experiment: In vitro covalent adduct formation (CAF) assay, LC-MS intact mass
Format: binding
Settings: for % CAF 10 uM @ 60 min: 10 uM compound; for CAF (% after 1 hour): 10 μM compound
Summary of the method: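 Percent covalent modification from intact-mass LC-MS, by relative free versus adducted protein (adducts within 1 Da of expected mass). Reaction: 10 μM compound with 5 μM E. coli-expressed, GDP-exchanged KRAS 4B G12C in TBS pH 7.4, 4% DMSO, 1 h at 22° C.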

Structure (SMILES) | % CAF 10 uM @ 60 min (60 min) [%] | other results
C=CC(=O)N1[C@H](C)CN(c2nc(=O)n3c4c(c(-c5ccc(F)cc5)c(C(F)(F)F)cc24)SC[C@H](OCOC)C3)C[C@@H]1C [Example 1009, (R)-8-((3S,5R)-4-acryloyl-3,5-dimethylpiperazin-1-yl)-11-(4-fluorophenyl)-3-(methoxymethoxy)-10-(trifluoromethyl)-3,4-dihydro-2H,6H-[1,4]thiazepino[2,3,4-ij]quinazolin-6-one] |  | CAF (% binding after 60 min): 96%
C=CC(=O)N1C[C@H](C)N(c2nc(=O)n3c4c(c(-c5cc(Cl)c(F)cc5F)c(C(F)(F)F)cc24)SCC2(COC2)C3)C[C@H]1C (single isomer, unassigned) [Example 1121] |  | % CAF 10 uM @ 60 min (60 min incubation): 95.5%
C=CC(=O)N1[C@H](C)CN(c2nc(=O)n3c4c(c(-c5ccc(F)c6cnn(C)c56)c(C(F)(F)F)cc24)SC[C@@H]3COC)C[C@@H]1C (atropisomer, axis not shown) [Example 1126, (3S,10S)-7-((3S,5R)-4-acryloyl-3,5-dimethylpiperazin-1-yl)-10-(4-fluoro-1-methyl-1H-indazol-7-yl)-3-(methoxymethyl)-9-(trifluoromethyl)-2,3-dihydro-5H-[1,4]thiazino [2,3,4-ij]quinazolin-5-one] |  | % CAF 10 uM @ 60 min (60 min incubation): 46.8%
C=CC(=O)N1[C@H](C)CN(c2nc(=O)n3c4c(c(-c5cc(C)c(F)cn5)c(C(F)(F)F)cc24)SC[C@@H](OC)C3)C[C@@H]1C [Example 1209, (S)-8-((3S,5R)-4-acryloyl-3,5-dimethylpiperazin-1-yl)-11-(5-fluoro-4-methylpyridin-2-yl)-3-methoxy-10-(trifluoromethyl)-3,4-dihydro-2H,6H-[1,4]thiazepino[2,3,4-ij]quinazolin-6-one] |  | CAF (% after 1 hour): 96%
C=CC(=O)N1[C@H](C)CN(c2nc(=O)n3c4c(c(-c5cc(Cl)c(F)cc5F)c(C(F)(F)F)cc24)SC[C@@H](NCC(F)(F)F)C3)C[C@@H]1C [Example 1240, (3S)-8-((3S,5R)-4-acryloyl-3,5-dimethylpiperazin-1-yl)-11-(5-chloro-2,4-difluorophenyl)-3-((2,2,2-trifluoroethyl)amino)-10-(trifluoromethyl)-3,4-dihydro-2H,6H-[1,4]thiazepino[2,3,4-ij]quinazolin-6-one] |  | CAF (% after 1 hour): 91%
C=CC(=O)N1[C@H](C)CN(c2nc(=O)n3c4c(c(-c5cc(Cl)c(F)cc5F)c(C(F)(F)F)cc24)SC[C@@H](OCOC)C3)C[C@@H]1C [Example 1015, (3S)-8-((3S,5R)-4-acryloyl-3,5-dimethylpiperazin-1-yl)-11-(5-chloro-2,4-difluorophenyl)-3-(methoxymethoxy)-10-(trifluoromethyl)-3,4-dihydro-2H,6H-[1,4]thiazepino[2,3,4-ij]quinazolin-6-one] |  | CAF (% binding after 60 min): 84%
C=CC(=O)N1[C@H](C)CN(c2nc(=O)n3c4c(c(-c5ccc(F)cc5F)c(C(F)(F)F)cc24)SC[C@@H]3CN2CCN(C3CC3)CC2)C[C@@H]1C (atropisomer, axis not shown) [Example 1347, (3S,10S)-7-((3S,5R)-4-acryloyl-3,5-dimethylpiperazin-1-yl)-3-((4-cyclopropylpiperazin-1-yl)methyl)-10-(2,4-difluorophenyl)-9-(trifluoromethyl)-2,3-dihydro-5H-[1,4]thiazino[2,3,4-ij]quinazolin-5-one] | 89.7 | 
C=CC(=O)N1[C@H](C)CN(c2nc(=O)n3c4c(c(-c5ccc(F)cc5)c(C(F)(F)F)cc24)SC[C@H](N2CCCC2)C3)C[C@@H]1C [Example 1118, (R)-8-((3S,5R)-4-acryloyl-3,5-dimethylpiperazin-1-yl)-11-(4-fluorophenyl)-3-(pyrrolidin-1-yl)-10-(trifluoromethyl)-3,4-dihydro-2H,6H-[1,4]thiazepino [2,3,4-ij]quinazolin-6-one] |  | % CAF 10 uM @ 60 min (60 min incubation): 95.7%
C=CC(=O)N1[C@H](C)CN(c2nc(=O)n3c4c(c(-c5ccc(F)cc5F)c(C(F)(F)F)cc24)SC[C@@H]3CN2CC[C@H](F)C2)C[C@@H]1C (atropisomer, axis not shown) [Example 1429, (3S,10R)-7-((3S,5R)-4-acryloyl-3,5-dimethylpiperazin-1-yl)-10-(2,4-difluorophenyl)-3-(((S)-3-fluoropyrrolidin-1-yl)methyl)-9-(trifluoromethyl)-2,3-dihydro-5H-[1,4]thiazino[2,3,4-ij]quinazolin-5-one] | 79 | 
C=CC(=O)N1CCN(c2nc(=O)n3c4c(c(-c5ccc(F)c(Cl)c5)c(C(F)(F)F)cc24)SC[C@@H](OCCOC)C3)CC1 [Example 1021, (S)-8-(4-acryloylpiperazin-1-yl)-11-(3-chloro-4-fluorophenyl)-3-(2-methoxyethoxy)-10-(trifluoromethyl)-3,4-dihydro-2H,6H-[1,4]thiazepino[2,3,4-ij]quinazolin-6-one] |  | CAF (% binding after 60 min): 97%
[2H]C([2H])([2H])O[C@@H]1CSc2c(-c3ccc(F)cc3)c(C(F)(F)F)cc3c(N4C[C@@H](C)N(C(=O)C=C)[C@@H](C)C4)nc(=O)n(c23)C1 [Example 1229, (S)-8-((3S,5R)-4-acryloyl-3,5-dimethylpiperazin-1-yl)-11-(4-fluorophenyl)-3-(methoxy-d3)-10-(trifluoromethyl)-3,4-dihydro-2H,6H-[1,4]thiazepino[2,3,4-ij]quinazolin-6-one] |  | CAF (% after 1 hour): 96%
C=CC(=O)N1[C@H](C)CN(c2nc(=O)n3c4c(c(-c5cccc6cnn(C)c56)c(C(F)(F)F)cc24)SC[C@@H]3CN2C[C@@H]3C[C@H]2CO3)C[C@@H]1C [Example 1385, (3S)-3-(((1S,4S)-2-oxa-5-azabicyclo[2.2.1]heptan-5-yl)methyl)-7-((3S,5R)-4-acryloyl-3,5-dimethylpiperazin-1-yl)-10-(1-methyl-1H-indazol-7-yl)-9-(trifluoromethyl)-2,3-dihydro-5H-[1,4]thiazino[2,3,4-ij]quinazolin-5-one] | 92.5 | 
C=CC(=O)N1CC2COCC(C1)N2c1nc(=O)n2c3c(c(-c4ccc(F)cc4)c(C(F)(F)F)cc13)SC[C@@H]2COC [Example 1383, (3S)-7-(7-acryloyl-3-oxa-7,9-diazabicyclo[3.3.1]nonan-9-yl)-10-(4-fluorophenyl)-3-(methoxymethyl)-9-(trifluoromethyl)-2,3-dihydro-5H-[1,4]thiazino[2,3,4-ij]quinazolin-5-one] | 66 | 
C=CC(=O)N1CCN(c2nc(=O)n3c4c(c(-c5c(F)cc(F)cc5F)c(C(F)(F)F)cc24)SC[C@@H]3COC)CC1 [Example 1379, (S)-7-(4-acryloylpiperazin-1-yl)-3-(methoxymethyl)-9-(trifluoromethyl)-10-(2,4,6-trifluorophenyl)-2,3-dihydro-5H-[1,4]thiazino[2,3,4-ij]quinazolin-5-one] | 96.7 | 
C=CC(=O)N1C[C@H](C)N(c2nc(=O)n3c4c(c(-c5ccc(F)cc5F)c(C(F)(F)F)cc24)SC[C@@H]3CN2C[C@@H]3C[C@H]2CO3)C[C@H]1C (atropisomer, axis not shown) [Example 1322, (3S,10S)-3-(((1S,4S)-2-oxa-5-azabicyclo[2.2.1]heptan-5-yl)methyl)-7-((2S,5R)-4-acryloyl-2,5-dimethylpiperazin-1-yl)-10-(2,4-difluorophenyl)-9-(trifluoromethyl)-2,3-dihydro-5H-[1,4]thiazino[2,3,4-ij]quinazolin-5-one] | 96.2 | 
C=CC(=O)N1CCN(c2nc(=O)n3c4c(c(-c5ccc(F)cc5)c(C(F)(F)F)cc24)SC[C@@H]3COC)CC1 [Example 1106, (S)-7-(4-acryloylpiperazin-1-yl)-10-(4-fluorophenyl)-3-(methoxymethyl)-9-(trifluoromethyl)-2,3-dihydro-5H-[1,4]thiazino[2,3,4-ij]quinazolin-5-one] |  | % CAF 10 uM @ 60 min (60 min incubation): 98.2%

More lines, main results first:

% CAF 10 uM @ 60 min (60 min) [%] | Structure (SMILES) | other results
95.4 | [2H]C([2H])=C([2H])C(=O)N1[C@H](C)CN(c2nc(=O)n3c4c(c(-c5cc(Cl)c(F)cc5F)c(C(F)(F)F)cc24)SC[C@@H]3COC)C[C@@H]1C (atropisomer, axis not shown) [Example 1393, (3S,10R)-7-((3S,5R)-4-(acryloyl-d3)-3,5-dimethylpiperazin-1-yl)-10-(5-chloro-2,4-difluorophenyl)-3-(methoxymethyl)-9-(trifluoromethyl)-2,3-dihydro-5H-[1,4]thiazino[2,3,4-ij]quinazolin-5-one] | 
94.4 | C=CC(=O)N1[C@H](C)CN(c2nc(=O)n3c4c(c(-c5cc(Cl)c(F)cc5F)c(C(F)(F)F)cc24)SC[C@@H]3CN2CCN(C3CC3)CC2)C[C@@H]1C (atropisomer, axis not shown) [Example 1348, (3S,10R)-7-((3S,5R)-4-acryloyl-3,5-dimethylpiperazin-1-yl)-10-(5-chloro-2,4-difluorophenyl)-3-((4-cyclopropylpiperazin-1-yl)methyl)-9-(trifluoromethyl)-2,3-dihydro-5H-[1,4]thiazino[2,3,4-ij]quinazolin-5-one] | 
91 | C=CC(=O)N1[C@H](C)CN(c2nc(=O)n3c4c(c(-c5cc(Cl)c(F)cc5F)c(C(F)(F)F)cc24)SCC(COC)(COC)C3)C[C@@H]1C (atropisomer, axis not shown) [Example 1421, (R)-8-((3S,5R)-4-acryloyl-3,5-dimethylpiperazin-1-yl)-11-(5-chloro-2,4-difluorophenyl)-3,3-bis(methoxymethyl)-10-(trifluoromethyl)-3,4-dihydro-2H,6H-[1,4]thiazepino[2,3,4-ij]quinazolin-6-one] | 
79 | C=CC(=O)N1[C@H](C)CN(c2nc(=O)n3c4c(c(-c5cc(Cl)c(F)cc5F)c(C(F)(F)F)cc24)SC[C@@H](N2CCCC2)C3)C[C@@H]1C (atropisomer, axis not shown) [Example 1441, (3S,11R)-8-((3S,5R)-4-acryloyl-3,5-dimethylpiperazin-1-yl)-11-(5-chloro-2,4-difluorophenyl)-3-(pyrrolidin-1-yl) 10-(trifluoromethyl)-3,4-dihydro-2H,6H-[1,4]thiazepino[2,3,4-ij]quinazolin-6-one] | 
